Test results taken from patent US8389551B2, “Optical enantiomers of phenyramidol and process for chiral synthesis” (Fermenta Biotech (UK) Limited, priority 2006, dated 2013).
Marks after values point to notes of the source that are not given here.

Key:
Assay type in all cases: in vivo
swiss albino mice [1] = test: Skeletal muscle relaxant activity, Rota rod, second experiment (racemic, S isomer, R isomer); conditions: confirmed by a Rota-rod method
Method: The evaluation of skeletal muscle relaxant activity of the formulations containing phenyramidol racemic, dextro and laevo isomers of oxalate salts in swiss albino mice were carried out using Rota rod apparatus. Each animal was trained only once per day for 5 days. […] Mouse was placed on rota rod only when it achieved the speed of 25 rpm. The ‘fall off time’ in seconds was noted down when the mouse falls from rotating rod. Endurance time was measured up to 120 seconds. The skeletal muscle relaxant activity was assessed using 0 hr, 1 hr, 2 hrs, 4 hrs and 6 hrs time points after the dose administration. A total of 100 mice were selected and randomly distributed into ten main groups with 10 animals per group.
Two efficacy variables were assessed during the experiment: 1. Percent animal falling from the rod was noted; 2. Endurance Time (ET): The time taken for a mouse to fall from the rod was taken as endurance time. The endurance time was taken up to 120 sec and treatment group ET was compared to normal control. These efficacy variables were assessed at five time points 0 hr, 1 hr, 2 hr, 4 hr, and 6 hr for each and every animal.
In another experiment, the studies have been extended to confirm the isomer which is having more skeletal muscle relaxant activity. Control group (R1) receiving only vehicle (water for injection) served as a placebo in the study. […]

swiss albino mice [2] = test: Analgesic activity, acetic acid induced writhing method
Method: The objective of the study was to evaluate the analgesic activity of the tested formulations of the compounds of the present invention. The test was conducted in Swiss albino mice using acetic acid induced writhing method. A total of 78 pre-screened mice (showing writhing response within 10 minutes*) were divided into 6 groups of 13 animals (6 males+7 females) each. The animals showing no writhing response within 10 mins were excluded. Diclofenac and pentazocine were used as positive controls. The formulations were given orally to the different groups of animals and the number of writhes counted for a period of 15 minutes, after the onset of writhes. If the onset of writhes occurred 30 after 10 minutes the number of writhes was recorded as V. The time of onset of writhes was recorded for each animal.
The control group received 1% gum acacia. The Groups 2, 3, and 4 received the formulations viz: Phen 2; Phen 3 and Phen 4 respectively. Diclofenac and pentazocine were used as positive control and given to groups 5 and 6 respectively. Diclofenac, a potent analgesic & anti-inflammatory agent; and 5 pentazocine an opoid analgesic were selected for comparative evaluation of test formulations. Both these drugs were administered to different groups of animals at the dose of 2 mg/kg. The group 1 (Phen 1) served as—Ve Control group in the study. Phen 5 (Diclofenac—2 mg/kg) and Positive Control: Phen 6 (Pentazocine 2 mg/kg) served as positive controls.
Human daily dose of 2400 mg (800 mg×3 times) was extrapolated to mice for Phen3 and human daily dose of 1200 mg (400 mg×3 times) was extrapolated to mice for Phen2 and Phen 4. The numbers of writhes observed are given below in Table 4 for each formulation.
Further, the evaluation of analgesic activity was carried out using variable dosage forms with different groups. A total of 100 animals (50 males+50 females) were selected randomly and distributed into ten main groups with 10 animals per group (5 M+5 F). Human daily dose of 2400 mg (800 mg×3 times) was extrapolated to mice for Phen 3 (Phenyramidol Racemic (Hydrochloride) and human daily dose of 1200 mg (400 mg×3 times), 1800 mg (400 mg×4.5 times), 2000 mg (400 mg×5 times) & 2400 mg (400 mg×6 times) was extrapolated to mice for Phen2 and Phen4 groups.
The control group 1 received 1% gum acacia and served as negative control group. Groups 2, 3, 4 & 5 received the formulation Phen2. Groups 6, 7, 8 & 9 received the formulation Phen 4 (Isomer 2) & Group 10 received the formulation Phen 3 (Racemic).
Further, one more experiment was done with phenyramidol hydrochloride to evaluate the analgesic activity at lesser dosage levels using acetic acid induced method. A total of 50 animals (25 males+25 females) were selected and randomly distributed into five main groups with 10 animals per group (5 M+5 F). 5 Human daily dose of 600 mg (400×1.5 times) & 1200 mg (800 mg×1.5 times) was extrapolated to mice for Phen 3 (Racemic) and human daily dose of 600 mg (400 mg×1.5 times) was extrapolated to mice for (−) Phenyramidol Hydrochloride & (+) Phenyramidol Hydrochloride and the results are discussed in Table 6.

mice = test: Central analgesic activity, tail flick analgesiometer; conditions: mouse, in vivo
rats = test: Anti-arthritic activity, thickness of joint of right paw after injection of formalin; conditions: for Thickness of Joint (in cm) 0 hr: 0 hr (initial); for Thickness of Joint (in cm) 0 hr / Thickness of Joint (in cm) 2 hr: Phen 3 2400 mg, Phen 2 and Phen 4 1200 mg human daily dose extrapolated to rats, Diclofenac sodium 2 mg/Kg; for Thickness of Joint (in cm) 2 hr: 2 hr after formalin; for Thickness of Joint (in cm) 4 hr: 4 hr after formalin; for Thickness of Joint (in cm) 4 hr / Thickness of Joint (in cm) 8 hr / Thickness of Joint (in cm) 24 hr / Thickness of Joint (in cm) 48 hr / Thickness of Joint (in cm) 72 hr: doses as E38; for Thickness of Joint (in cm) 8 hr: 8 hr after formalin; for Thickness of Joint (in cm) 24 hr: 24 hr after formalin; for Thickness of Joint (in cm) 48 hr: 48 hr after formalin; for Thickness of Joint (in cm) 72 hr: 72 hr after formalin; for Anti-arthritic activity (conclusion): formalin model, FIG. 18
Method: The anti-arthritic activity was assessed using following time points after the injection of formalin 2 hrs, 4 hrs, 8 hrs, 24 hrs, 48 hrs and 72 hrs. The control group (group 1) received 1% gum acacia. The Groups 2, 3, and 4 received the formulations viz: Phen 2, Phen 3 and Phen 4 respectively. Diclofenac was used as positive control and given to group 5. Human daily dose of 2400 mg (800 mg×3 times) was extrapolated to rats for 5 (racemate) Phen 3 and human daily dose of 1200 mg (400 mg×3 times) was extrapolated to rats for (isomer 1) Phen 2 and (isomer 2) Phen 4. Diclofenac sodium 2 mg/Kg was used as reference product.
Initial or 0 hr thickness of the joint of right paw of each animal was recorded. The thickness of the joint was measured using Vernier calipers at different time intervals after the injection of formalin. These efficacy variables were assessed at six time points 2 hrs, 4 hrs, 8 hrs, 24 hrs, 48 hrs and 72 hrs for each and every animal.

Wistar rats = test: Anti-inflammatory activity, carrageenin induced paw edema (plethysmometer); conditions: for % Increase in Paw volume 1 HR: 1 HR after carrageenan, oral, racemate 2400 mg, isomers 1200 mg human daily dose extrapolated to rats, Indomethacin 15 mg/kg, diclofenac 10 mg/kg; for % Increase in Paw volume 2 HR: 2 HR after carrageenan; for % Increase in Paw volume 2 HR / % Increase in Paw volume 3 HR / % Increase in Paw volume 5 HR: doses as E46; for % Increase in Paw volume 3 HR: 3 HR after carrageenan; for % Increase in Paw volume 5 HR: 5 HR after carrageenan
Method: Further, the investigations were carried out to determine the anti-inflammatory activities of the molecule of the present invention. Wistar rats weighing between 160-210 gm were divided into 6 groups of 10 animals each. Group I served as control (Placebo) and receive CMC and Group II & III received anti-inflammatory control (positive control) (Diclofenac & Indomethacin respectively). Group IV to VI were treated orally with test formulations. After 15 min. of drug administration, inflammation was induced by injecting 0.1 ml of freshly prepared 1% carrageenin (in normal saline) into the left hind paw of the rat. The paw volume of the […] was measured by measuring the displace fluid in other hand of plethysmometer.
Indomethacin (15 mg/kg and declofenac (10 mg/kg) was used as reference product. Percent increased in rat paw edema was measured and compare to normal control at each time intervals.
The antiinflammatory activity was assessed plethysmographically using following time points after the administration of carrageenan, 1 hr, 2 hrs, 3 hrs and 5 hrs.

swiss albino mice [3] = test: Skeletal muscle relaxant activity, Rota rod apparatus, first experiment (oxalate salts, dose groups); conditions: at the doses mentioned
Method: Control group receiving only vehicle served as a placebo in the study.
The test formulations were administered by oral route through gavage tube.(p.o.).
Two efficacy variables were assessed during the experiment: 1. Percent animal falling from the rod was noted; 2. Endurance Time (ET): The time taken for a mouse to fall from the rod was taken as endurance time. […] These efficacy variables were assessed at five time points 0 hr, 1 hr, 2 hr, 4 hr, and 6 hr for each and every animal.

[4] = Table 4, oral, writhes counted 15 minutes, Phen3 human daily dose 2400 mg, Phen2 and Phen 4 1200 mg extrapolated to mice, Diclofenac and Pentazocine 2 mg/kg
[5] = Table 5, dose 1200 mg (human daily dose extrapolated to mice), mean ± SD, n = 10
[6] = Table 5, dose 1800 mg (human daily dose extrapolated to mice), mean ± SD, n = 10
[7] = Table 5, dose 2000 mg (human daily dose extrapolated to mice), mean ± SD, n = 10
[8] = Table 5, dose 2400 mg (human daily dose extrapolated to mice), mean ± SD, n = 10
[9] = experiment of Table 5 (variable doses)

| Compound | Average no. of writhes (swiss albino mice [2]; [4]) | Average no. of writhes (swiss albino mice [2]; [5]) | Average no. of writhes (swiss albino mice [2]; [6]) | Average no. of writhes (swiss albino mice [2]; [7]) | Average no. of writhes (swiss albino mice [2]; [8]) | analgesic activity by decrease in the number of writhes induced by acetic acid (swiss albino mice [2]; experiment of Table 4) | analgesic activity by decrease in the number of writhes induced by acetic acid (swiss albino mice [2]; [9]) | Tail Flick Reaction Time (Sec.) 1 hr. (mice) | Tail Flick Reaction Time (Sec.) 4 hr. (mice) | Thickness of Joint (in cm) 0 hr (rats) | Thickness of Joint (in cm) 2 hr (rats) | Thickness of Joint (in cm) 4 hr (rats) | Thickness of Joint (in cm) 8 hr (rats) | Thickness of Joint (in cm) 24 hr (rats) | Thickness of Joint (in cm) 48 hr (rats) | Thickness of Joint (in cm) 72 hr (rats) | % Increase in Paw volume 1 HR (Wistar rats) | % Increase in Paw volume 2 HR (Wistar rats) | % Increase in Paw volume 3 HR (Wistar rats) | % Increase in Paw volume 5 HR (Wistar rats) | also measured |
| --- | --- | --- | --- | --- | --- | --- | --- | --- | --- | --- | --- | --- | --- | --- | --- | --- | --- | --- | --- | --- | --- |
| Cl.O[C@H](CNc1ccccn1)c1ccccc1 [(+) Phenyramidol Hydrochloride, (S)-Phenyramidol Hydrochloride Salt] | – | – | – | – | – | – | – | – | – | – | – | – | – | – | – | – | – | – | – | – | skeletal muscle relaxant activity (summary statement) (swiss albino mice [1]): enhanced skeletal muscle relaxant activity; Average no. of writhes (swiss albino mice [2]; Table 6, dose 600 mg (human daily dose extrapolated to mice), mean ± SD, n = 10): 5.00 ± 4.64*; analgesic activity by decrease in the number of writhes induced by acetic acid (swiss albino mice [2]; experiment of Table 6, lesser dosage levels): significant analgesic activity |
| O=C(O)C(=O)O.O[C@@H](CNc1ccccn1)c1ccccc1 [Phen 4, (R)-Phenyramidol Oxalate] | 12.08 ± 4.21* | 10.50 ± 6.65* | 6.20 ± 5.39* | 6.00 ± 6.41* | 4.50 ± 5.19* | significant analgesic activity | significant analgesic activity | 2.87 ± 1.071 s | 3.18 ± 1.540 s | 0.49 ± 0.04 cm | 0.56 ± 0.05 cm | 0.56 ± 0.05 cm | 0.62 ± 0.03 cm | 0.55 ± 0.05 cm | 0.53 ± 0.04 cm | 0.51 ± 0.03 cm | 25.37 ± 10.44% | 39.90 ± 6.12% | 68.36 ± 22.20% | 49.65 ± 19.03% | difference from normal control in thickness of the joint (rats; at 2 hr, One Way ANOVA followed by Dunnett's Test): significant difference (p<0.05); Anti-arthritic activity (conclusion) (rats): exhibits Anti-arthritic activity; Anti-arthritic activity (conclusion) (rats; listed as Phen4): significant anti-arthritic activity |
| O=C(O)C(=O)O.O[C@H](CNc1ccccn1)c1ccccc1 [Phen 2, (S)-Phenyramidol Oxalate] | 13.08 ± 9.93* | 11.90 ± 8.43* | 8.80 ± 6.78* | 8.20 ± 7.30* | 6.00 ± 5.66* | significant analgesic activity | significant analgesic activity | 4.31 ± 1.754 s | 2.46 ± 0.591 s | 0.45 ± 0.06 cm | 0.59 ± 0.03 cm | 0.56 ± 0.04 cm | 0.60 ± 0.06 cm | 0.54 ± 0.05 cm | 0.52 ± 0.04 cm | 0.50 ± 0.03 cm | 25.82 ± 11.67% | 40.57 ± 10.07% | 66.59 ± 20.88% | 48.71 ± 15.16% | skeletal muscle relaxant activity (conclusion) (swiss albino mice [3]): exhibit skeletal muscle relaxant activity |
